Experimental findings from PubChem BioAssay (NCI) are described below.

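Step 1: Grow cells in 96-well plates. Step 2: Expose to compound for 48 hours at 5 concentrations. Step 3: Interpolate endpoints linearly; if unreached, use highest concentration. GI50 marks 50% less growth. The concentration for full growth arrest is given as TGI.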 Some results are limits rather than exact numbers.

Some test systems named below: 786-0 renal; COLO 205 colon; M14 melanoma; SK-OV-3 ovarian; SNB-19 CNS; SW-620 colon; U251 CNS; MCF7 breast; MDA-MB-435.
Experiment in all cases: NCI-60 cell line screen, 48 h

For `O=C(N/N=C(/c1nc2ccc(Cl)cc2[nH]c1=O)C(O)c1ccc(Cl)cc1Cl)c1ccncc1` (stereo not drawn), the TGI in the experiment on 786-0 renal, with COLO 205 colon, in the experiment on M14 melanoma, in the experiment with SK-OV-3 ovarian, in the experiment with SNB-19 CNS and with SW-620 colon was more than 100 µM each time. In the experiment on U251 CNS, this compound registered a TGI of more than 100 µM.

In the case of `CC1=NNC(=NCCN(C)C)C/C1=C/c1ccccc1Cl`, the TGI in the experiment with 786-0 renal, with COLO 205 colon, in the experiment on M14 melanoma, in the experiment on SK-OV-3 ovarian, in the experiment with SNB-19 CNS and in the experiment on SW-620 colon was more than 100 µM in each case. This compound yielded a TGI in the experiment with U251 CNS of more than 100 µM.

As for `CC(C)(C)N=C1CC(C)(C)c2ccccc2C(=Nc2ccccc2)S1`, the TGI was more than 100 µM with 786-0 renal; 49.6 µM in the experiment on COLO 205 colon; more than 100 µM in the experiment with M14 melanoma; more than 100 µM in the experiment on SK-OV-3 ovarian; more than 100 µM with SNB-19 CNS; more than 100 µM in the experiment on SW-620 colon. The TGI with U251 CNS is more than 100 µM.

On to `COc1ccc(SC2c3cc(OC)c(OC)cc3Oc3nc(N)c(C#N)c(N)c32)cc1` (stereo not drawn), for which the GI50 with 786-0 renal is 0.493 µM; in the experiment on COLO 205 colon it was 1.29 µM; in the experiment on M14 melanoma it was 1.21 µM; in the experiment on MCF7 breast, 0.454 µM; in the experiment with MDA-MB-435, 1.5 µM; with SK-OV-3 ovarian it was 1.81 µM. In addition, the GI50 is 1.32 µM in the experiment on SNB-19 CNS, 1.24 µM with SW-620 colon and 0.954 µM with U251 CNS. Moreover, the TGI stood at 1.73 µM in the experiment on 786-0 renal; 2.65 µM in the experiment on COLO 205 colon; 2.65 µM in the experiment on M14 melanoma; 2.1 µM with MCF7 breast; 2.92 µM in the experiment on MDA-MB-435; 3.2 µM in the experiment with SK-OV-3 ovarian. The figures for the TGI in the experiment on SNB-19 CNS, with SW-620 colon and in the experiment on U251 CNS were 2.64 µM, 3.2 µM and 2.18 µM, respectively.

In the case of `CC#C[C@@]1(O)CCCC[C@@H]1O`, the TGI in the experiment with 786-0 renal, in the experiment on COLO 205 colon, with M14 melanoma, with SK-OV-3 ovarian, in the experiment with SNB-19 CNS and with SW-620 colon was more than 100 µM throughout. Also, in the experiment with U251 CNS, the TGI was more than 100 µM.

`COc1ccc2c(c1)CCC1C2CC[C@@]2(C)C1CC[C@@]2(O)CNC(=O)/C=C/c1ccc(O)c(OC)c1` (stereo partly drawn): the GI50 in the experiment on 786-0 renal is 23.2 µM; with COLO 205 colon, 14 µM; in the experiment with M14 melanoma, 15.8 µM; with MCF7 breast, 7.41 µM; with MDA-MB-435, 4.95 µM; in the experiment on SK-OV-3 ovarian, 66.1 µM. The GI50 in the experiment on SNB-19 CNS was 27.8 µM; in the experiment with SW-620 colon, 58.4 µM; in the experiment with U251 CNS, 19 µM. Also, the TGI with 786-0 renal was more than 100 µM; in the experiment with COLO 205 colon it was 35.3 µM; with M14 melanoma, 53 µM; with MCF7 breast, more than 100 µM; with MDA-MB-435, more than 100 µM; in the experiment on SK-OV-3 ovarian, more than 100 µM. Further, the TGI was more than 100 µM with SNB-19 CNS, more than 100 µM in the experiment on SW-620 colon and 76.6 µM with U251 CNS.

As to `Cc1cccc(C(C)(C)C)c1NC(=O)/C(Cc1nc2ccc([N+](=O)[O-])cc2[nH]c1=O)=N/NC(=O)C[N+](C)(C)C`, the TGI in the experiment with 786-0 renal, with COLO 205 colon, in the experiment with M14 melanoma, with MCF7 breast, in the experiment with MDA-MB-435 and in the experiment with SK-OV-3 ovarian was more than 100 µM throughout. Besides, the TGI with SNB-19 CNS, with SW-620 colon and in the experiment with U251 CNS was more than 100 µM in each case.

Consider `N#Cc1cccc(NC(=O)c2ccc(C(=O)O)c(C(=O)c3ccc(C(=O)O)c(C(=O)Nc4cccc(C#N)c4)c3)c2)c1`, for which the TGI in the experiment on 786-0 renal, in the experiment with COLO 205 colon, with M14 melanoma, in the experiment with SK-OV-3 ovarian, in the experiment with SNB-19 CNS and with SW-620 colon was more than 100 µM throughout. This compound also showed a TGI in the experiment with U251 CNS of more than 100 µM.

As for `COc1cc([C@@H]2c3cc4c(cc3[C@@H](NC(=O)c3ccc(N)cc3)C3COC(=O)[C@@H]32)OCO4)cc(OC)c1O` (stereo partly drawn), the TGI with 786-0 renal is 3.84 µM; in the experiment with COLO 205 colon it was 28.4 µM; in the experiment with M14 melanoma, more than 100 µM; in the experiment on SK-OV-3 ovarian it was 8.06 µM; in the experiment with SNB-19 CNS it was 17.4 µM; with SW-620 colon, 20.8 µM. In addition, in the experiment on U251 CNS, the TGI amounted to 3.5 µM.

With `S=c1nc(-c2ccccc2)oc(=NC2CCCCC2)n1C1CCCCC1`, the GI50 with 786-0 renal is 4.46 µM; in the experiment with COLO 205 colon it was 2.11 µM; in the experiment on M14 melanoma it was 6.2 µM; in the experiment with MCF7 breast it was 3.2 µM; in the experiment with MDA-MB-435 it was 3.36 µM; in the experiment with SK-OV-3 ovarian, 5.05 µM. Also, the GI50 was 5.05 µM in the experiment with SNB-19 CNS, 3.78 µM in the experiment with SW-620 colon and 3.85 µM in the experiment on U251 CNS. Also, the TGI in the experiment with 786-0 renal was 16.2 µM; in the experiment on COLO 205 colon, 4.22 µM; with M14 melanoma, 27.8 µM; in the experiment on MCF7 breast it was 12.2 µM; in the experiment on MDA-MB-435, 8.82 µM; with SK-OV-3 ovarian, more than 100 µM. For the same compound, the values for the TGI in the experiment on SNB-19 CNS, in the experiment on SW-620 colon and in the experiment on U251 CNS were 17.4 µM, 14.6 µM and 15.2 µM, respectively.

For `O=NC1c2cccc3cccc(c23)C1N=O` (stereo not drawn), the TGI in the experiment with 786-0 renal was found to be 30.5 µM; in the experiment with COLO 205 colon, 17.2 µM; in the experiment with M14 melanoma, 27.3 µM; in the experiment on MCF7 breast it was 25.8 µM; in the experiment on MDA-MB-435 it was 25.7 µM; with SK-OV-3 ovarian, 43.7 µM. Moreover, the TGI was 43.4 µM in the experiment on SNB-19 CNS, 12.7 µM in the experiment on SW-620 colon and 28.1 µM with U251 CNS.

Regarding `Cc1cnc[nH]c1=O`, the TGI in the experiment with 786-0 renal, in the experiment on COLO 205 colon, in the experiment with M14 melanoma, in the experiment with SK-OV-3 ovarian, in the experiment on SNB-19 CNS and with SW-620 colon was more than 100 µM each time. The TGI in the experiment with U251 CNS is more than 100 µM.

`Cc1cc(C)cc(-n2c3nc(=O)n(C)c(=O)c-3nc3ccccc32)c1`: the TGI in the experiment with 786-0 renal is more than 100 µM; in the experiment with COLO 205 colon, 24.8 µM; in the experiment with M14 melanoma, 77.4 µM; in the experiment on SK-OV-3 ovarian, more than 100 µM; in the experiment on SNB-19 CNS it was 50.9 µM; in the experiment on SW-620 colon, 40.7 µM. The TGI in the experiment with U251 CNS was 50.5 µM.

Turning to `Cc1cc(NS(=O)(=O)c2ccc(Nc3c4ccccc4nc4c(C(=O)Nc5ccc(S(=O)(=O)N=C(N)N)cc5)cccc34)cc2)no1`, the TGI in the experiment with 786-0 renal, in the experiment on COLO 205 colon, in the experiment with M14 melanoma, with SK-OV-3 ovarian, with SNB-19 CNS and in the experiment on SW-620 colon was more than 100 µM throughout. For the same compound, the TGI in the experiment with U251 CNS was more than 100 µM.

For `CCOC(=O)C1N(S(=O)(=O)c2ccc(C)cc2)CCC12c1ccccc1N(C(C)=O)C2C(/C=C/C(=O)OC)=C/C(=O)OC` (stereo not drawn), the TGI in the experiment with 786-0 renal, in the experiment on COLO 205 colon, with M14 melanoma, in the experiment on SK-OV-3 ovarian, in the experiment on SNB-19 CNS and in the experiment with SW-620 colon was more than 100 µM throughout. Further, the TGI with U251 CNS is more than 100 µM.

Consider `C[Si](C)(C)/C=C/CCC(C=O)(CCCl)c1ccccc1` (stereo not drawn), for which the TGI in the experiment with 786-0 renal is 40.8 µM; in the experiment with COLO 205 colon, 85.4 µM; in the experiment with M14 melanoma, 86.6 µM; with SK-OV-3 ovarian, more than 100 µM; in the experiment on SNB-19 CNS, more than 100 µM; with SW-620 colon, more than 100 µM. Moreover, the TGI with U251 CNS was 33 µM.

Take `O=C(CC(=O)N1N=C(c2ccccc2)C(N=Nc2ccc(C(=O)O)cc2)C1=O)Nc1ccc(F)cc1` (stereo not drawn): the TGI was 63 µM in the experiment on 786-0 renal; more than 100 µM with COLO 205 colon; more than 100 µM in the experiment on M14 melanoma; 62.6 µM with SK-OV-3 ovarian; more than 100 µM in the experiment with SNB-19 CNS; more than 100 µM in the experiment with SW-620 colon.

For `O=C(c1ccccc1)C1C(C(=O)c2ccccc2)N1Cc1ccccc1` (stereo not drawn), the TGI in the experiment on 786-0 renal is more than 100 µM; in the experiment on COLO 205 colon it was 58.3 µM; with M14 melanoma, more than 100 µM; in the experiment with MDA-MB-435, 68.3 µM; in the experiment on SK-OV-3 ovarian, more than 100 µM; in the experiment on SNB-19 CNS it was more than 100 µM. In addition, the TGI with SW-620 colon and in the experiment on U251 CNS was more than 100 µM each time.

Regarding `COC(=O)C[CH](C(=O)OC)[Ge]([CH3])([CH3])[S]c1ccccc1` (stereo not drawn), the GI50 is 15.9 µM in the experiment on 786-0 renal; 13.9 µM in the experiment on COLO 205 colon; 21.5 µM with M14 melanoma; 25.8 µM in the experiment with SK-OV-3 ovarian; 19.5 µM with SNB-19 CNS; 13 µM in the experiment on SW-620 colon. The GI50 in the experiment with U251 CNS was 12 µM. Besides, the TGI amounted to 30.7 µM with 786-0 renal; 27.1 µM in the experiment on COLO 205 colon; 57.5 µM in the experiment with M14 melanoma; 67 µM with SK-OV-3 ovarian; 49.9 µM in the experiment with SNB-19 CNS; 26.8 µM with SW-620 colon. This compound gave a TGI with U251 CNS of 26.2 µM.

In the case of `CC(CN=C(CC(=O)c1ccc(Br)cc1)c1ccccc1)N=C(CC(=O)c1ccc(Br)cc1)c1ccccc1` (stereo not drawn), the GI50 with 786-0 renal is 4.2 µM; with COLO 205 colon, 7.58 µM; with MCF7 breast, 2.91 µM; in the experiment on MDA-MB-435 it was 41.8 µM; in the experiment with SK-OV-3 ovarian it was 9.05 µM; in the experiment on SNB-19 CNS, more than 100 µM. Moreover, the GI50 with SW-620 colon and with U251 CNS was more than 100 µM each time. Besides, the TGI in the experiment with 786-0 renal, with COLO 205 colon, with MCF7 breast, in the experiment on MDA-MB-435, in the experiment with SK-OV-3 ovarian and in the experiment with SNB-19 CNS was more than 100 µM each time. Further, the TGI in the experiment on SW-620 colon and with U251 CNS was more than 100 µM in each case.
